Literature values as cited in patent publication US20120021048A1, “Combination Dosage Compositions Comprising a Cholesterol-Lowering Agent, a Renin-Angiotensin System Inhibitor, an Antioxidant Agent and an Antiplatelet Agent for Treatment and Prevention of Cardiovascular Disease” (Nucitec S.A. de C.V., priority 2010, published 2012).
Like-named read-outs stand apart in the source and are kept apart here.

Experiments:
[1] = expected value, single agent at polypill dose, cited from earlier work
[2] = expected value; doses of polypill (atorvastatin 20 mg, lycopene 30 mg); cited from earlier work
macrophages = conditions: lycopene added to macrophages in cell culture; cited from earlier work
[3] = in vivo pure lycopene supplementation; cited from earlier work

Row | SMILES | % reduction in risk of Ischaemic heart disease [1] [%] | % reduction in risk of Ischaemic heart disease ([1]; listed as acetylsalicylic acid) | Reduction in concentration (LDL-cholesterol) [2] [mg/dL] | % reduction in risk of Ischaemic heart disease ([1]; listed as atorvastatin) | suppression of cellular cholesterol synthesis (macrophages) | reduction of plasma LDL cholesterol concentration [3] [%]
1 | CC(=O)Oc1ccccc1C(=O)O [Acetylsalicylic Acid] | 32 | about 32% | – | – | – | –
2 | CC(C)c1c(C(=O)Nc2ccccc2)c(-c2ccccc2)c(-c2ccc(F)cc2)n1CC[C@@H](O)C[C@@H](O)CC(=O)O [Atorvastatin] | 61 | – | 70 | about 61% | – | –
3 | CC(C)=CCC/C(C)=C/C=C/C(C)=C/C=C/C(C)=C/C=C/C=C(C)/C=C/C=C(C)/C=C/C=C(\C)CCC=C(C)C [Lycopene] | ~20 | – | 14 to 20 | – | approximately 40% | 14
4 | CCOC(=O)[C@H](CCc1ccccc1)N[C@@H](C)C(=O)N1[C@H](C(=O)O)C[C@@H]2CCC[C@@H]21 [Ramipril] | ~25 | – | – | – | – | –
